# Patent publication US10590113B2, “6-hydroxy-4-oxo-1,4-dihydropyrimidine-5-carboxamides as APJ agonists” (priority 2016, dated 2020)
# pEC50: −log10 of the molar value.
# Target: T1, human APJ receptor (Homo sapiens, UniProt P35414)
# T1 construct: expressed in transfected cells; host or cells: HEK293
# T1 sequence (P35414 1-380): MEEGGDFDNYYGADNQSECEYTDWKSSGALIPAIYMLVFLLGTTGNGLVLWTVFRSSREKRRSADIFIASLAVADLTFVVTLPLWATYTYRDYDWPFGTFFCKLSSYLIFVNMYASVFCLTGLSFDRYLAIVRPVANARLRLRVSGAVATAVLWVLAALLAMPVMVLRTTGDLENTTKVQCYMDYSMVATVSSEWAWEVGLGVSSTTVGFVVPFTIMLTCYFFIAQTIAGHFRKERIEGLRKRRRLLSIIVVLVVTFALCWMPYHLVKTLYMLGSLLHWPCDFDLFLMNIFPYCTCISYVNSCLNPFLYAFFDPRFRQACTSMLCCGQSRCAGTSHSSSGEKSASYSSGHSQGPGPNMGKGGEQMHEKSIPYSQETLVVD
# Assay: Intracellular cAMP Accumulation Assay (APJ hcAMP, HTRF)
# Assay type: cell-based
# Settings: not given
# Method: Intracellular cAMP Accumulation Assay
# HEK293 cells stably expressing human APJ receptor were used to assess the activity of compounds. Cultured cells were detached and resuspended in the cAMP
# Homogeneous Time-Resolved Fluorescence (HTRF) assay buffer (Cisbio cat; #62AM4PEJ). The assay was performed in 384-well assay plates (Perkin-Elmer; cat #6008289) according to assay protocol provided by the manufacturer. Serial dilutions of a compound together with assay buffer containing […] IBMX and 2 μM forskolin were added to each well containing 5,000 cells and incubated for 30 minutes at room temperature. Subsequently, cAMP D2 reagent was added in the lysis buffer followed by the EuK antibody (Cisbio; cat #62AM4PEJ) and incubated for 60 min. The fluorescence emission ratio was measured using fluorometer. The intracellular cAMP concentrations (compound-stimulated inhibition of forskolin-mediated cAMP production) were calculated by extrapolation from a standard curve using known cAMP concentrations. The EC50 values were obtained by fitting the data to a sigmoidal concentration-response curve with variable slope.
# The EC50 value of each compound is presented at the end of the example description.
# The biological activity of the exemplified compounds of this invention determined by the assay described above is shown at the end of each example.
row,pEC50,Structure (SMILES)
1,8.00 to 11.00,"[2H]C([2H])([2H])Oc1cccc(OC([2H])([2H])[2H])c1-n1c(COCC)nc(=O)c(C(=O)N2CC[C@H](c3ccccc3)C2)c1O [Example 106, 1-[2,6-bis(^2H3)methoxyphenyl]-2-(ethoxymethyl)-6-hydroxy-5-[(3R)-3-phenylpyrrolidine-1-carbonyl]-1,4-dihydropyrimidin-4-one]"

# Same assay, conditions: HEK293 cells stably expressing human APJ receptor; inhibition of forskolin-mediated cAMP production; read-out: Human APJ cAMP EC50 potency range
row,pEC50,Structure (SMILES)
1,8.00 to 11.00,"COc1ccccc1C1CCN(C(=O)c2c(O)n(-c3c(OC)cccc3OC)c(-c3cncc(C)c3)nc2=O)C1 (stereo not shown) [Example 7, 1-(2,6-dimethoxyphenyl)-6-hydroxy-5-(3-(2-methoxyphenyl)pyrrolidine-1-carbonyl)-2-(5-methylpyridin-3-yl)pyrimidin-4(1H)-one]"

# Same assay, conditions: human APJ, cAMP accumulation; potency range class; read-out: hAPJ cAMP EC50 Potency range
row,Structure (SMILES),pEC50
1,"CCn1ccc(-c2nc(=O)c(C(=O)N3CCC(c4ccccc4F)C3)c(O)n2-c2cccc(C(C)C)c2)n1 (single isomer, unassigned) [Example 294, 2-(1-ethyl-1H-pyrazol-3-yl)-5-[3-(2-fluorophenyl)pyrrolidine-1-carbonyl]-6-hydroxy-1-[3-(propan-2-yl)phenyl]-1,4-dihydropyrimidin-4-one]",8.00 to 11.00
2,"COc1cccc(OC)c1-n1c(-c2cccc(Cl)c2)nc(=O)c(C(=O)N2CCC(c3ncc(Cl)cc3F)C2)c1O (single isomer, unassigned) [Example 264, 5-[3-(5-chloro-3-fluoropyridin-2-yl)pyrrolidine-1-carbonyl]-2-(3-chlorophenyl)-1-(2,6-dimethoxyphenyl)-6-hydroxy-1,4-dihydropyrimidin-4-one]",8.00 to 11.00
3,"CC[C@@H](c1ccccc1)n1c(-c2ccc(F)c(C)c2)nc(=O)c(C(=O)N2CC[C@H](c3ccccc3)C2)c1O [Example 314, 2-(4-fluoro-3-methylphenyl)-6-hydroxy-1-[(1S)-1-phenylpropyl]-5-[(3R)-3-phenylpyrrolidine-1-carbonyl]-1,4-dihydropyrimidin-4-one]",8.00 to 11.00
4,"CCCCc1nc(O)c(C(=O)N2CCC(c3ncc(Cl)cc3F)C2)c(=O)n1[C@@H](COC)c1ccccc1 (single isomer, unassigned) [Example 352]",8.00 to 11.00
5,"COc1cccc(OC)c1-n1c(-c2cccc(C)n2)nc(=O)c(C(=O)N2CCC(c3ncc(F)cc3F)C2)c1O (single isomer, unassigned) [Example 235, 5-[3-(3,5-difluoropyridin-2-yl)pyrrolidine-1-carbonyl]-1-(2,6-dimethoxyphenyl)-6-hydroxy-2-(6-methylpyridin-2-yl)-1,4-dihydropyrimidin-4-one]",8.00 to 11.00

# Results, then the compound that gave them:
row,pEC50,Structure (SMILES)
1,8.00 to 11.00,"COc1cccc(OC)c1-n1c(-c2ccnc(C)c2)nc(=O)c(C(=O)N2CCC(c3c(F)cccc3F)C2)c1O (single isomer, unassigned) [Example 257, 5-[3-(2,6-difluorophenyl)pyrrolidine-1-carbonyl]-1-(2,6-dimethoxyphenyl)-6-hydroxy-2-(2-methylpyridin-4-yl)-1,4-dihydropyrimidin-4-one]"
2,8.00 to 11.00,"CCn1ccc(-c2nc(=O)c(C(=O)N3CC[C@@H](c4ccccc4)C3)c(O)n2-c2cccc(C(C)C)c2)n1 [Example 288, 2-(1-ethyl-1H-pyrazol-3-yl)-6-hydroxy-5-[(3S)-3-phenylpyrrolidine-1-carbonyl]-1-[3-(propan-2-yl)phenyl]-1,4-dihydropyrimidin-4-one]"
3,8.00 to 11.00,"CC[C@@H](c1ccccc1)n1c(-c2nc(C)cs2)nc(=O)c(C(=O)N2CCC(c3ncc(F)cc3F)C2)c1O (single isomer, unassigned) [Example 321]"
4,8.00 to 11.00,"COc1cccc(OC)c1-n1c(-c2cccc(C)c2)nc(=O)c(C(=O)N2CCC(c3ncc(F)cc3F)C2)c1O (single isomer, unassigned) [Example 244, 5-[3-(3,5-difluoropyridin-2-yl)pyrrolidine-1-carbonyl]-1-(2,6-dimethoxyphenyl)-6-hydroxy-2-(3-methylphenyl)-1,4-dihydropyrimidin-4-one]"
5,8.00 to 11.00,"CCc1cccc(CC)c1-n1c(-c2ccn(C3CC3)n2)nc(=O)c(C(=O)N2CCC(c3ncc(F)cc3F)C2)c1O (single isomer, unassigned) [Example 325, 2-(1-cyclopropyl-1H-pyrazol-3-yl)-1-(2,6-diethylphenyl)-5-[3-(3,5-difluoropyridin-2-yl)pyrrolidine-1-carbonyl]-6-hydroxy-1,4-dihydropyrimidin-4-one]"
6,8.00 to 11.00,"CCc1cccc(CC)c1-n1c(-c2ccn(C)n2)nc(=O)c(C(=O)N2CC[C@@H](c3ccccc3)C2)c1O [Example 285, 1-(2,6-diethylphenyl)-6-hydroxy-2-(1-methyl-1H-pyrazol-3-yl)-5-[(3S)-3-phenylpyrrolidine-1-carbonyl]-1,4-dihydropyrimidin-4-one]"
7,8.00 to 11.00,"COc1cccc(OC)c1-n1c(CC2CC2)nc(=O)c(C(=O)N2CCC(c3ccccc3F)C2)c1O (single isomer, unassigned) [Example 226, 2-(cyclopropylmethyl)-1-(2,6-dimethoxyphenyl)-5-[3-(2-fluorophenyl)pyrrolidine-1-carbonyl]-6-hydroxy-1,4-dihydropyrimidin-4-one]"

# Same assay, conditions: human APJ, intracellular cAMP accumulation; read-out: hAPJ cAMP EC50 Potency range
row,Structure (SMILES),pEC50
1,"COc1cccc(OC)c1-n1c(COC2CC2)nc(=O)c(C(=O)N2CCC(c3ccccc3F)C2)c1O (single isomer, unassigned) [Example 13, 2-(cyclopropoxymethyl)-1-(2,6-dimethoxyphenyl)-5-(3-(2-fluorophenyl)pyrrolidine-1-carbonyl)-6-hydroxy-pyrimidin-4(1H)-one]",8.00 to 11.00
2,"CCCCc1nc(=O)c(C(=O)N2CCC(c3ccccc3F)C2)c(O)n1-c1c(OC)cccc1OC (single isomer, unassigned) [Example 53, 2-butyl-1-(2,6-dimethoxyphenyl)-5-[3-(2-fluorophenyl)pyrrolidine-1-carbonyl]-6-hydroxy-1,4-dihydropyrimidin-4-one]",8.00 to 11.00
3,"CCCCc1nc(=O)c(C(=O)N2CCC(c3ccccc3Cl)C2)c(O)n1-c1c(OC)cccc1OC (single isomer, unassigned) [Example 43, 2-butyl-5-[3-(2-chlorophenyl)pyrrolidine-1-carbonyl]-1-(2,6-dimethoxyphenyl)-6-hydroxy-1,4-dihydropyrimidin-4-one]",8.00 to 11.00
4,"CCCCc1nc(=O)c(C(=O)N2CC[C@H](c3ccccc3)C2)c(O)n1C(C)c1ccncc1 (stereo partly drawn) [Example 148, 2-butyl-6-hydroxy-5-[(3R)-3-phenylpyrrolidine-1-carbonyl]-3-[1-(pyridin-4-yl)ethyl]3,4-dihydropyrimidin-4-one]",7.00 to 8.00
5,"COc1cccc(OC)c1-n1c(COC2CC2)nc(=O)c(C(=O)N2CCC(c3ccc(F)cc3)C2)c1O (single isomer, unassigned) [Example 103, 2-(cyclopropoxymethyl)-1-(2,6-dimethoxyphenyl)-5-[3-(4-fluorophenyl)pyrrolidine-1-carbonyl]-6-hydroxy-1,4-dihydropyrimidin-4-one]",8.00 to 11.00
6,"CC[C@@H](c1cc(F)cc(F)c1)n1c(-c2nc(C)cs2)nc(=O)c(C(=O)N2CCC(c3ncc(F)cc3F)C2)c1O (single isomer, unassigned) [Example 210]",8.00 to 11.00
7,"CC[C@@H](c1cc(F)cc(F)c1)n1c(-c2ccn(C)n2)nc(=O)c(C(=O)N2CCC(c3ccc(F)cc3)C2)c1O (single isomer, unassigned) [Example 194]",8.00 to 11.00

# Further lines, results first:
row,pEC50,Structure (SMILES)
1,7.00 to 8.00,"CCCCc1nc(=O)c(C(=O)N2CC[C@H](c3ccccc3)C2)c(O)n1[C@H](C)C1CC1 [Example 142, 2-butyl-3-[(1R)-1-cyc1opropylethyl]-6-hydroxy-5-[(3R)-3-phenylpyrrolidine-1-carbonyl]-3,4-dihydropyrimidin-4-one]"
2,7.00 to 8.00,"CCCCc1nc(=O)c(C(=O)N2CC[C@H](c3ccccc3)C2)c(O)n1C(C)c1cccnc1 (stereo partly drawn) [Example 140, 2-butyl-6-hydroxy-5-[(3R)-3-phenylpyrrolidine-1-carbonyl]-3-[1-(pyridin-3-yl)ethyl]-3,4-dihydropyrimidin-4-one]"

# Same assay, conditions: read-out: hAPJ cAMP EC50 Potency range
row,pEC50,Structure (SMILES)
1,7.00 to 8.00,"CCCCc1nc(=O)c(C(=O)N2CCC(Oc3ccc(C(C)(C)C)cc3)CC2)c(O)n1-c1c(OC)cccc1OC [Example 381, 2-butyl-5-(4-(4-(tert-butyl)phenoxy)piperidine-1-carbonyl)-1-(2,6-dimethoxyphenyl)-6-hydroxypyrimidin-4(1H)-one]"

# Same assay, conditions: read-out: hAPJ cAMP EC50 Potency range; human APJ, intracellular cAMP accumulation
row,pEC50,Structure (SMILES)
1,8.00 to 11.00,"CCCCc1nc(=O)c(C(=O)N2CCC(c3ccccn3)C2)c(O)n1-c1c(OC)cccc1OC (single isomer, unassigned) [Example 70, 2-butyl-1-(2,6-dimethoxyphenyl)-6-hydroxy-5-[3-(pyridin-2-yl)pyrrolidine-1-carbonyl]-1,4-dihydropyrimidin-4-one]"
